The subject of the assay is HCCs of TGFα/c-myc mice. Description: Tumour penetration assessment with Evans blue. It counts as in vivo, mouse. Particulars: 4 μmol/kg peptide i.v.; Evans blue 33 mg/kg i.v. 24 h later; photometric quantification; n = 11 tumours from four animals. The procedure: Homozygous metallothionein/TGFα and albumin/c-myc single transgenic mice in CD13B6CBA background were crossed to generate the male TGFα/c-myc bitransgenic mice, as previously described. Hepatocarcinogenesis was accelerated by giving the mice ZnCl2 (via the drinking water) to induce the expression of TGFα. The animals were inspected every 2 to 3 days. To detect and monitor the endogenously formed HCCs in the TGFα/c-myc mice, gadoxetic acid (Gd-EOB-DTPA)-enhanced MRI was performed on a 3T MRI scanner (Siemens Magnetom Trio, Siemens Medical Solutions) as described recently. Mice with HCC as identified by Gd-EOB-DTPA-enhanced MRI were used in the subsequent experiments.
TGFα/c-myc mice with confirmed liver tumours according to Gd-EOB-DTPA […]-enhanced MRI or nude mice with HepG2 tumours received iRGD/CEND-1 or RGD control peptide (4 μmol/kg each), or PBS by tail vein injection. […] Another 30 min later, the mice were terminally perfused with Ringer solution by cannulation of the left heart ventricle. Organs were inspected macroscopically following laparotomy, and the liver, tumour and other organs were excised. Evans blue was extracted from tissues in N,N-dimethylformamide for 24 h at 37 °C and quantified spectrophotometrically (Beckman Coulter DU 800, Beckman Coulter, Brea, CA, USA) at 600 nm.

Bridges are numbered along the chain shown (N, C = ends). Where no end group is shown, it is not given here.

“CRGDDGPKC (disulfide 1-9 (inferred)) [RGD control peptide, RGD control peptide (…)]”: the “increase in Evans blue in the tumour tissue” value is reported as “no effect”.

The values are drawn from paper PMC10053770, “Assessment of the Pharmacokinetics, Disposition, and Duration of Action of the Tumour-Targeting Peptide CEND-1” (International Journal of Molecular Sciences, 2023).
